This is an account of results in patent US9540343B2 (Gilead Sciences, Inc., priority 2011, dated 2017).

One data set can be described thus: in vitro. The conditions noted are these: human, uninfected MT-4 cells, CC50 (nM), same protocol as Test A, CellTiter-Glo. The method in brief:
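Cytoprotection read-out: CellTiter-Glo chemiluminescence after 5 days at 37 °C of HIV-IIIb-infected MT-4 cells (m.o.i. 0.003) with compound in 10-point 3-fold dilutions, quadruplicate, 10% FBS. Cytotoxicity (CC50) measured identically without virus.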
(In ATP-based viability assays light output follows the ATP content of the culture.)

The test system of the next data set is HIV-IIIb. Put plainly: Test A: Antiviral assay in MT4 cells. The class given is cell-based, HIV-1. To be noted: Human immunodeficiency virus 1, IIIB, MT4, 120 h, read-out: % inhibition at 2 μM, percent inhibition of virus-induced cell killing, from dose response curve at 2 uM drug; MT-4 cells infected with HIV-IIIb, 5 days, CellTiter-Glo.

As to `O=C(Cn1nc(C(F)F)c2c1C(F)(F)C1CC21)N[C@@H](Cc1cc(F)cc(F)c1)c1ncncc1-c1cccc2[nH]cnc12` (stereo partly drawn) [Example 127C, N—((S)-1-(5-(1H-benzo[d]imidazol-4-yl)pyrimidin-4-yl)-2-(3,5-difluorophenyl)ethyl)-2-(3-(difluoromethyl)-5,5-difluoro-3b,4,4a,5-tetrahydro-1H-cyclopropa[3,4]cyclopenta[1,2-c]pyrazol-1-yl)acetamide], the CC50 at 5 days in the data set “in vitro” was 31900 nM. The inhibition at 2 µM in the data set on HIV-IIIb came to 97%.
On the same counts, the results for `CCOC(=O)N1CCCC1C(=O)N[C@@H](Cc1cc(F)cc(F)c1)c1ncccc1-c1ccc(F)c(C(N)=O)c1` (stereo partly drawn) [Example 128, ethyl 2-((S)-1-(3-(3-carbamoyl-4-fluorophenyl)pyridin-2-yl)-2-(3,5-difluorophenyl)ethylcarbamoyl)pyrrolidine-1-carboxylate] are 23500 nM and 7%.
For `NC(=O)c1cc(-c2cccnc2[C@H](Cc2cc(F)cc(F)c2)NC(=O)Cn2nc(C(F)(F)OCc3ccccn3)c3c2CCCC3)ccc1OCc1ccccn1` [Example 129, (S)-5-(2-(1-(2-(3-(difluoro(pyridin-2-ylmethoxy)methyl)-4,5,6,7-tetrahydro-1H-indazol-1-yl)acetamido)-2-(3,5-difluorophenyl)ethyl)pyridin-3-yl)-2-(pyridin-2-ylmethoxy)benzamide], in that order: 10200 nM and 0%.
`NC(=O)c1cc(-c2cccnc2[C@H](Cc2cc(F)cc(F)c2)NC(=O)Cn2nc(C(F)(F)F)cc2C2=CCCC2)ccc1F` [Example 130D, (S)-5-(2-(1-(2-(5-cyclopentenyl-3-(trifluoromethyl)-1H-pyrazol-1-yl)acetamido)-2-(3,5-difluorophenyl)ethyl)pyridin-3-yl)-2-fluorobenzamide]: the midpoint of cytotoxicity in “in vitro”, the CC50 at 5 days, lay at 15800 nM. Besides, the inhibition at 2 µM with HIV-IIIb stood at 39%.
In “in vitro”, `O=C(Cn1nc(C(F)F)c2c1C(F)(F)C1CC21)N[C@@H](Cc1cc(F)cc(F)c1)c1ncncc1-c1ccc2cnccc2c1` (stereo partly drawn) [Example 131C, 2-(3-(difluoromethyl)-5,5-difluoro-3b,4,4a,5-tetrahydro-1H-cyclopropa[3,4]cyclopenta[1,2-c]pyrazol-1-yl)-N—((S)-2-(3,5-difluorophenyl)-1-(5-(isoquinolin-6-yl)pyrimidin-4-yl)ethyl)acetamide] had a 50% cytotoxic concentration (CC50) at 5 days of 10400 nM. For the same molecule, the inhibition at 2 µM in the data set on HIV-IIIb amounted to 47%.
For `CC(C)(C)OC(=O)N1C[C@H](O)C[C@H]1C(=O)N[C@@H](Cc1cc(F)cc(F)c1)c1ncccc1-c1ccc(F)c(C(N)=O)c1` [Example 132, (2S,4R)-tert-butyl 2-((S)-1-(3-(3-carbamoyl-4-fluorophenyl)pyridin-2-yl)-2-(3,5-difluorophenyl)ethylcarbamoyl)-4-hydroxypyrrolidine-1-carboxylate], in that order: 22300 nM and 7%.
Turning to `CC(C)(C)OC(=O)N1CCOC[C@@H]1C(=O)N[C@@H](Cc1cc(F)cc(F)c1)c1ncccc1-c1ccc(F)c(C(N)=O)c1` [Example 133, (R)-tert-butyl 3-((S)-1-(3-(3-carbamoyl-4-fluorophenyl)pyridin-2-yl)-2-(3,5-difluorophenyl)ethylcarbamoyl)morpholine-4-carboxylate], the CC50 at 5 days in the data set “in vitro” was over 53000 nM. In the data set on HIV-IIIb, the inhibition at 2 µM is 1%.
For `NC(=O)c1cc(-c2cccnc2[C@H](Cc2cc(F)cc(F)c2)NC(=O)Cn2nc(C(F)(F)OCc3ccccn3)c3c2CCCC3)ccc1F` [Example 135, (S)-5-(2-(1-(2-(3-(difluoro(pyridin-2-ylmethoxy)methyl)-4,5,6,7-tetrahydro-1H-indazol-1-yl)acetamido)-2-(3,5-difluorophenyl)ethyl)pyridin-3-yl)-2-fluorobenzamide], in that order: 21100 nM and 53%.
On the same counts, the results for `NC(=O)c1cc(-c2cncnc2[C@H](Cc2cc(F)cc(F)c2)NC(=O)Cn2nc(C(F)(F)F)c3c2CC2CC32)ccc1F` (stereo partly drawn) [Example 136D, 5-(4-((1S)-2-(3,5-difluorophenyl)-1-(2-(3-(trifluoromethyl)-3b,4,4a,5-tetrahydro-1H-cyclopropa[3,4]cyclopenta[1,2-c]pyrazol-1-yl)acetamido)ethyl)pyrimidin-5-yl)-2-fluorobenzamide] are 27800 nM and 88%.
On the same counts, the results for `CC(C)(C)OC(=O)N1CC(=O)C[C@H]1C(=O)N[C@@H](Cc1cc(F)cc(F)c1)c1ncccc1-c1ccc(F)c(C(N)=O)c1` [Example 137, (S)-tert-butyl 2-((S)-1-(3-(3-carbamoyl-4-fluorophenyl)pyridin-2-yl)-2-(3,5-difluorophenyl)ethylcarbamoyl)-4-oxopyrrolidine-1-carboxylate] are 21700 nM and 1%.
`NC(=O)c1cc(-c2cccnc2[C@H](Cc2cc(F)cc(F)c2)NC(=O)Cn2nc(C(F)(F)F)cc2C2CC2)ccc1F` [Example 138, (S)-5-(2-(1-(2-(5-cyclopropyl-3-(trifluoromethyl)-1H-pyrazol-1-yl)acetamido)-2-(3,5-difluorophenyl)ethyl)pyridin-3-yl)-2-fluorobenzamide] registered a CC50 at 5 days in “in vitro” of 24500 nM. In addition, the inhibition at 2 µM in the data set on HIV-IIIb stood at 30%.
For `CC(C)(C)OC(=O)N1[C@@H](c2ccccc2)CC[C@H]1C(=O)N[C@@H](Cc1cc(F)cc(F)c1)c1ncccc1-c1ccc(F)c(C(N)=O)c1` [Example 139, (2S,5R)-tert-butyl 2-((S)-1-(3-(3-carbamoyl-4-fluorophenyl)pyridin-2-yl)-2-(3,5-difluorophenyl)ethylcarbamoyl)-5-phenylpyrrolidine-1-carboxylate], in that order: 14000 nM and 8%.
For `CC(C)(C)OC(=O)N1C(=O)CC[C@H]1C(=O)N[C@@H](Cc1cc(F)cc(F)c1)c1ncccc1-c1ccc(F)c(C(N)=O)c1` [Example 140, (S)-tert-butyl 2-((S)-1-(3-(3-carbamoyl-4-fluorophenyl)pyridin-2-yl)-2-(3,5-difluorophenyl)ethylcarbamoyl)-5-oxopyrrolidine-1-carboxylate], in that order: over 53000 nM and 0%.
For `NC(=O)c1cc(-c2cccnc2[C@H](Cc2cc(F)cc(F)c2)NC(=O)Cc2n[nH]c3ccc(C(F)(F)F)cc23)ccc1F` [Example 141G, (S)-5-(2-(2-(3,5-difluorophenyl)-1-(2-(5-(trifluoromethyl)-1H-indazol-3-yl)acetamido)ethyl)pyridin-3-yl)-2-fluorobenzamide], in that order: 21800 nM and 4%.
Consider `NC(=O)c1cc(-c2cccnc2[C@H](Cc2cc(F)cc(F)c2)NC(=O)Cn2nc(OCc3ncccn3)c3c2CCCC3)ccc1F` [Example 142C, (S)-5-(2-(2-(3,5-difluorophenyl)-1-(2-(3-(pyrimidin-2-ylmethoxy)-4,5,6,7-tetrahydro-1H-indazol-1-yl)acetamido)ethyl)pyridin-3-yl)-2-fluorobenzamide], for which the CC50 at 5 days in “in vitro” is over 53200 nM. Moreover, the inhibition at 2 µM in the data set on HIV-IIIb was 23%.
For `NC(=O)c1cc(-c2cccnc2[C@H](Cc2cc(F)cc(F)c2)NC(=O)Cn2nc3c(c2C(F)(F)OCc2ccccn2)CCCC3)ccc1F` [Example 143, (S)-5-(2-(1-(2-(3-(difluoro(pyridin-2-ylmethoxy)methyl)-4,5,6,7-tetrahydro-2H-indazol-2-yl)acetamido)-2-(3,5-difluorophenyl)ethyl)pyridin-3-yl)-2-fluorobenzamide], in that order: 19900 nM and 10%.
On the same counts, the results for `NC(=O)c1cccc(-c2cccnc2[C@H](Cc2cc(F)cc(F)c2)NC(=O)Cn2nc(C(F)(F)F)c3c2COCC3)c1` [Example 144, (S)-3-(2-(2-(3,5-difluorophenyl)-1-(2-(3-(trifluoromethyl)-4,5-dihydropyrano[3,4-c]pyrazol-1(7H)-yl)acetamido)ethyl)pyridin-3-yl)benzamide] are over 53000 nM and 89%.
Consider `CC(C)(C)OC(=O)N1C[C@H](OCc2ccccc2)C[C@H]1C(=O)N[C@@H](Cc1cc(F)cc(F)c1)c1ncccc1-c1ccc(F)c(C(N)=O)c1` [Example 145, (2S,4R)-tert-butyl 4-(benzyloxy)-2-((S)-1-(3-(3-carbamoyl-4-fluorophenyl)pyridin-2-yl)-2-(3,5-difluorophenyl)ethylcarbamoyl)pyrrolidine-1-carboxylate], for which, in the data set “in vitro”, the CC50 at 5 days amounted to 22400 nM. Moreover, the inhibition at 2 µM in the data set on HIV-IIIb stood at 0%.
For `O=C(Cn1[nH]c(=O)c2c1CCCC2)N[C@@H](Cc1cc(F)cc(F)c1)c1ncccc1-c1ccc(Cl)cc1` [Example 146, (S)—N-(1-(3-(4-chlorophenyl)pyridin-2-yl)-2-(3,5-difluorophenyl)ethyl)-2-(3-oxo-2,3,4,5,6,7-hexahydro-1H-indazol-1-yl)acetamide], in that order: 20600 nM and 66%.
In turn, `NC(=O)c1cc(-c2cccnc2[C@H](Cc2cc(F)cc(F)c2)NC(=O)Cn2nc(-n3cccn3)ccc2=O)ccc1F` [Example 147, (S)-5-(2-(2-(3,5-difluorophenyl)-1-(2-(6-oxo-3-(1H-pyrazol-1-yl)pyridazin-1(6H)-yl)acetamido)ethyl)pyridin-3-yl)-2-fluorobenzamide] came in with a CC50 at 5 days in “in vitro” of over 53200 nM. Moreover, the inhibition at 2 µM with HIV-IIIb was 10%.
On the same counts, the results for `CC(C)(C)OC(=O)N1C[C@@H](c2ccccc2)C[C@H]1C(=O)N[C@@H](Cc1cc(F)cc(F)c1)c1ncccc1-c1ccc(F)c(C(N)=O)c1` [Example 148, (2S,4R)-tert-butyl 2-((S)-1-(3-(3-carbamoyl-4-fluorophenyl)pyridin-2-yl)-2-(3,5-difluorophenyl)ethylcarbamoyl)-4-phenylpyrrolidine-1-carboxylate] are 12300 nM and 11%.

The CC50 is the concentration at which the toxic effect on the cells reaches its halfway point. Higher therefore signals lower toxicity to the cells. One may read the inhibition as how much of the control response was suppressed.
